Literature values in paper PMC2505184 (Bioconjugate chemistry, 2008).

in vitro serum stability: high in vitro serum stability
Structure (SMILES): O=C([O-])CN1CCCN(CC(=O)[O-])CCN(CC(=O)[O-])CCCN(CC(=O)[O-])CC1.[64Cu+2] [^64Cu-TETA]
